# Legend:
# HL-60 cells = test: MTT assay, cell viability of HL-60 cells; assay type: cell-based; conditions: Homo sapiens, 48 h, mean ± s.d., n = 3, read-out: IC50 values of compounds for leukemia cells
# [1] = target: T1, ATPase domain (1-386 residues) of human Hsc70 (Homo sapiens, UniProt P11142); test: STD NMR competition with ATP-γ-S; assay type: binding; conditions: ATP-γ-S in place of ATP, Az phosphate salt form
# T1 construct: pET28a-human Hsc70 ATPase domain (1-386 residues); inferred from the pET28a vector and nickel-column purification; made in house; host or cells: E. coli BL21 (DE3)
# Experimental: However, the detailed mode of Az binding to the proteins has not been elucidated. To gain information about the molecular basis of Az binding to Hsp70 proteins, NMR studies were carried out on a complex of Az with an ATPase domain (1-386 residues) of human Hsc70. Saturation transfer difference (STD) NMR studies were conducted initially to obtain information on Az binding to the ATPase domain of Hsc70[30]. […] Next, we evaluated whether Az affects binding of ATP to the ATPase domain. For STD experiments, less hydrolytic ATP-γ-S was used in place of ATP.
# For STD experiments, 10 μM of an ATPase domain of Hsc70, 1 mM of ATP-γ-S and Az (a phosphate salt form) were used. For competition studies between ATP-γ-S and Az, STD of the sample with 5 μM ATPase domain of Hsc70 and 500 μM ATP-γ-S was initially measured, and further titrated with Az up to 1 mM. The ratios of ATP-γ-S to Az were 1:0, 1:1, 1:1.5, and 1:2. All STD NMR spectra were obtained using 20 mM solutions of deuterated Tris buffer with 5% (v/v) DMSO-d6 (pD 7.2).
# [2] = tested on: caspase activity of HL-60 and K562 cells; test: Caspase activity assay with Ac-DEVD-pNA in cell lysates; assay type: cell-based, human; conditions: lysates of cells treated 24 h
# Experimental: Because Az inhibits the association of Hsp70 with Apaf-1, caspase associated proteolytic activities should increase in cells treated with Az. To determine whether this event occurs, caspase activities of HL-60 and K562 cells treated with Az were measured by using the colorimetric substrate, Ac-DEVD-pNA (pNA, p-nitroaniline). […] We also examined whether leukemia cells are protected from the effect of Az by ZVAD-FMK (benzyloxycarbonyl-Val-Ala-Asp(OMe) fluoromethyl ketone, a cell-permeable inhibitor of pan-caspases). HL-60 and K562 cells were pre-incubated with ZVAD-FMK for 3 h and subsequently exposed to Az.
# HL-60 and K562 cells treated with each compound for 24 h were lysed in a buffer containing 50 mM HEPES (pH 7.4), 5 mM CHAPS and 5 mM DTT. Assay buffer containing 20 mM HEPES (pH 7.4), 0.01% CHAPS, 5 mM DTT and 2 mM EDTA was added to cell lysates. Caspase activity was measured in the absence or presence of acetyl-DEVD-pNA (200 μM) (Sigma-Aldrich) by using a microplate reader (monitored at 405 nm).
# [3] = tested on: AIF translocation in HL-60 and K562 cells; test: AIF translocation to the nucleus (western blot, immunocytochemistry); assay type: cell-based, human; conditions: 24 h; 2 μM for Az-O3-GD
# Source text: Apoptosis-inducing factor (AIF) is known to be translocated from the cytosol to the nucleus during caspase-independent apoptosis (Supplementary Fig. S8b)[39]. In addition, it is also known that Hsp70 interacts with AIF directly and this interacting event results in blocking translocation of AIF to the nucleus and, in turn, prevents caspase-independent apoptosis. Because of these phenomena, we tested if Az has an influence on AIF-mediated caspase-independent apoptosis. To probe this issue, HL-60 and K562 cells were exposed to Az and the levels of AIF in the cytosolic and nuclear fractions were then determined. AIF translocation to the nucleus was not observed in Az-treated cells, based on western blot analysis (Fig. 4d). Additional evidence to support this conclusion was obtained from immunocytochemical analysis of leukemia cells treated with Az (Fig. 4d).
# Western blot analysis. […] peroxidase-conjugated goat anti-rabbit IgG (1:2000, Santa Cruz Bio Technology) and goat anti-mouse IgG (1:2000, Santa Cruz Bio Technology) were used as the secondary antibodies. The blots were developed by using a West-ZOL® plus Western Blot Detection System (Intron Biotechnology Inc., South Korea). Western blot signals were analyzed by using a G:BOX Chemi Fluorescent & Chemiluminescent Imaging System.
# Immunocytochemistry. […] Cell images were analyzed using the ZEN 2011 software.
# T1 sequence (P11142 1-386): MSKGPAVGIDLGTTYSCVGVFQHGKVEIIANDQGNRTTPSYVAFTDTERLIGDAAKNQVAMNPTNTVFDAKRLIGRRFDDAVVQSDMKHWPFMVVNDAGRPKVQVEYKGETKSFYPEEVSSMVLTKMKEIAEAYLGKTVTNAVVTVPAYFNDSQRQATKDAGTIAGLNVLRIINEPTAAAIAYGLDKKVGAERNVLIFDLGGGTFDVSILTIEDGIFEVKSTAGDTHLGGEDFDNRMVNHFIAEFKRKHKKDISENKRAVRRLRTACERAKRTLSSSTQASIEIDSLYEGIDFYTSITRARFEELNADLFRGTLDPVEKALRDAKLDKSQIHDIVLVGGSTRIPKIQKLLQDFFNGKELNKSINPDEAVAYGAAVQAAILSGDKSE
smiles,measurement,setting,value
"COc1ccc(-c2nc(-c3cc(C(F)(F)F)cc(C(F)(F)F)c3)n(Cc3ccc(C(=O)NCCOCCOCCN)cc3)c2-c2ccc(OC)cc2)cc1 [Az, apoptozole]",IC50,HL-60 cells,2800 ± 870 nM
same,effect on binding of ATP to the ATPase domain,[1],blocks ATP binding
same,caspase activity of treated cells,[2],increase
same,AIF translocation to the nucleus,[3],not observed
